Data reported in paper doi:10.1101/2022.12.01.518643 (bioRxiv, 2022).
Where two headings read alike, the source gives them in different places.

Tests used:
[1] = biological target: DP4 (HLA-DPA1*01:03/DPB1*04:01), DP4.1 (Homo sapiens, UniProt P04440+P20036); assay: Fluorescence polarization competition binding assay, DP4.1; settings: FP competition; Alexa488 oxytocinase probe 25 nM; DP4.1-Clip 250 nM; HLA-DM 500 nM; 37 °C, 24 h
[2] = test system: relevant alleles (DP4.1, DR2b, DR2a); assay: Fluorescence polarization competition binding assay, relevant alleles; parameters: species or system human; settings: six representative HLA-DR peptides
DRB5*01:01 (DR2a) = DRB5*01:01 (DR2a) (Homo sapiens, UniProt P01903+Q30154); assay: Fluorescence polarization competition binding assay, DR2a; settings: FP competition; Alexa488 influenza hemagglutinin probe 25 nM; DR2a-CLIP 250 nM; HLA-DM 500 nM; 37 °C, 24 h
DRB1*15:01 (DR2b) = DRB1*15:01 (DR2b) (Homo sapiens, UniProt P01903+P01911); assay: Fluorescence polarization competition binding assay, DR2b; settings: FP competition; Alexa488 MBP probe 25 nM; DR2b-CLIP 500 nM; HLA-DM 500 nM; 37 °C, 24 h
[3] = test system: peptide-expanded T cells from partially HLA-matched donors; assay: IFN-γ ELISpot, single-peptide in vitro expanded T cells with single allele APC; format: cell-based, human; settings: for T cell recognition, IFN-γ ELISpot: expanded T cells from HLA-matched donors; for minimal activating peptide concentration: dose range 10 – 10^−7 μg/mL
[4] = test system: single-peptide-expanded T cell lines; assay: Intracellular cytokine staining (ICS) of single-peptide-expanded T cell lines; format: cell-based, human; settings: single allele APC, 1 μg/mL
[5] = test system: T cell lines expanded in vitro with OC43 or SARS-CoV-2 peptides; assay: IFN-γ ELISpot cross-reactivity between OC43 peptides and homologs of other coronaviruses; settings: Table 1
[6] = biological target: soluble DP4 (HLA-DPA1*01:03/DPB1*04:01) (human)
[7] = biological target: soluble recombinant HLA-DR DRB1*15:01 (DR2b) (human); assay: fluorescence polarisation
[8] = biological target: soluble recombinant HLA-DR DRB5*01:01 (DR2a) (human); assay: fluorescence polarisation
[9] = biological target: soluble recombinant HLA-DR DRB1*15:01 (DR2b) (human)
[10] = biological target: soluble recombinant HLA-DR DRB5*01:01 (DR2a) (human)

APYGLYFIHFSYVPTK [Peptide P6, OC43 spike 1140–1155, naturally processed peptide eluted from HLA-DP]
IC50 [1]: ≥ 10 µM

DFINGIFAKVKNTKVIK [Peptide P12, OC43 spike 98–114, naturally processed peptide eluted from HLA-DR]
binding to DR2a / DR2b allotypes [2]: bound exclusively to DR2a
IC50 (DRB5*01:01 (DR2a)): < 1 µM
IC50 (DRB1*15:01 (DR2b)): ≥ 1 µM

EGQQIIFYEGVNFTP [Peptide P8, OC43 hemagglutinin esterase 93–107, naturally processed peptide eluted from HLA-DR]
T cell recognition, IFN-γ ELISpot [3]: not recognized
IFN-γ response in ICS [4]: did not produce a response

GAFFFGSRLELAKVQN [Peptide P2, OC43 nucleoprotein 321–336, naturally processed peptide eluted from HLA-DP]
minimal activating peptide concentration ([3]; expanded cells from donor 61): 10^−6 μg/mL
IC50 [1]: ≥ 10 µM

ITTGYRFTNFEPFT [Peptide P5, OC43 spike 760–773, naturally processed peptide eluted from HLA-DP]
IC50 [1]: < 1 µM

LFYTQVYKNMAVYRS [Peptide P9, OC43 hemagglutinin esterase 128–142, naturally processed peptide eluted from HLA-DR]
minimal activating peptide concentration ([3]; donor 40): 1 µg/mL
binding to DR2a / DR2b allotypes [2]: both allotypes
IC50 (DRB5*01:01 (DR2a)): < 1 µM

LSDFINGIFAKVKNTK [Peptide P3, OC43 spike 97–111, naturally processed peptide eluted from HLA-DP]
minimal activating peptide concentration ([3]; expanded cells from donor 61): 10^−7 μg/mL

LTALNAYVSQQLSDS [Peptide P11]
minimal activating peptide concentration ([3]; donor 07): 1 µg/mL
SARS-CoV-2 cross-reactivity [5]: yes

NRGRQFYEFYNDVKPP [Peptide P14, OC43 envelope 62–78, naturally processed peptide eluted from HLA-DP]
T cell recognition, IFN-γ ELISpot [3]: not recognized
IFN-γ response in ICS [4]: did not produce a response

OC43 envelope protein peptide 62–78 (P14)
IC50 [6]: < 10 µM

OC43 hemagglutinin esterase peptide 93–107 (P8)
IC50 [7]: < 1 µM

OC43 hemagglutinin esterase peptide 128–142 (P9)
IC50 [8]: < 1 µM
IC50 [7]: < 1 µM

OC43 nucleoprotein peptide 54–68 (P10)
IC50 [9]: < 1 µM

OC43 nucleoprotein peptide 321–336 (P2)
IC50 [6]: > 10 µM

OC43 spike peptide 97–111 (P3)
IC50 [6]: < 10 µM

OC43 spike peptide 98–114 (P12)
IC50 [10]: < 1 µM
IC50 [9]: > 1 µM

OC43 spike peptide 271–286 (P13)
IC50 [9]: < 1 µM

OC43 spike peptide 760–773 (P5)
IC50 [6]: < 1 µM

OC43 spike peptide 903–917 (P4)
IC50 [6]: < 10 µM

OC43 spike peptide 1085–1099 (P11)
IC50 [9]: < 1 µM

OC43 spike peptide 1140–1155 (P6)
IC50 [6]: > 10 µM

OC43 spike peptide 1147–1164 (P7)
IC50 [6]: < 10 µM

PSGGNVVPYYSWFSG [Peptide P10, OC43 nucleoprotein 54–68, naturally processed peptide eluted from HLA-DR]
minimal activating peptide concentration ([3]; donors 18, 22, and 40): 10^−5 μg/mL
minimal peptide concentrations ([3]; responding CD4 T cells, discussion): about 10 pg/mL

SRQYLLAFNQDGIIFN [Peptide P13, OC43 spike 271–286, naturally processed peptide eluted from HLA-DR]
T cell recognition, IFN-γ ELISpot [3]: not recognized
IC50 (DRB1*15:01 (DR2b)): < 1 µM
IFN-γ response in ICS [4]: did not produce a response

YLAISNELLLTVPTK [Peptide P1, OC43 hemagglutinin esterase 259–273, naturally processed peptide eluted from HLA-DP]
IC50 [1]: < 1 µM
